Test results taken from ChEMBL document CHEMBL1201862, “PubChem BioAssay data set” (2004).
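Briefly, cells in 96-well plates were exposed to five compound concentrations for 48 h, and endpoints were estimated by linear interpolation. The concentration for 50% growth inhibition is given as GI50.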 Active and inactive are the calls of the source. Rule as the data show it: active = GI50 up to about 1.1 µM and inactive = higher.

Key:
Assay in all cases: DTP human tumour cell line panel, 48 h
Malme-3M = test system: Malme-3M
MDA-N = test system: MDA-N
KM12 = test system: KM12
T47D = test system: T47D
PC-3 = test system: PC-3
HCT-15 = test system: HCT-15
SK-OV-3 = test system: SK-OV-3
OVCAR-3 = test system: OVCAR-3
BT-549 = test system: BT-549
UO-31 = test system: UO-31
NCI/ADR-RES = test system: NCI/ADR-RES
SR = test system: SR
SF-539 = test system: SF-539
CCRF-CEM = test system: CCRF-CEM
SNB-75 = test system: SNB-75
HL-60 = test system: HL-60
NCI-H23 = test system: NCI-H23
HCT-116 = test system: HCT-116
HT-29 = test system: HT-29
MDA-MB-435 = test system: MDA-MB-435

## Nc1nc(Nc2ccc(Cl)cc2)sc1C(=O)c1c[nH]c2ccccc12
Malme-3M
  GI50: 16.4 µM (inactive)
MDA-N
  GI50: 12.4 µM (inactive)
KM12
  GI50: 14 µM (inactive)
T47D
  GI50: 8.32 µM (inactive)
PC-3
  GI50: 14 µM (inactive)
HCT-15
  GI50: 3.87 µM
SK-OV-3
  GI50: 21.4 µM (inactive)
OVCAR-3
  GI50: 13.8 µM (inactive)
BT-549
  GI50: 16.9 µM (inactive)
UO-31
  GI50: 15.4 µM (inactive)
NCI/ADR-RES
  GI50: 12.4 µM (inactive)
SR
  GI50: 5.74 µM (inactive)
SF-539
  GI50: 15.8 µM (inactive)
CCRF-CEM
  GI50: 15 µM (inactive)
SNB-75
  GI50: 5.66 µM (inactive)
HL-60
  GI50: 15.7 µM (inactive)
NCI-H23
  GI50: 13.4 µM (inactive)
HCT-116
  GI50: 11.1 µM (inactive)
HT-29
  GI50: 6.78 µM (inactive)
MDA-MB-435
  GI50: 12.9 µM (inactive)

## CNC1C(O)C(OC2C(N)CC(N)C(OC3OC(CN)=CCC3N)C2O)OCC1(C)O (stereo not given)
Malme-3M
  GI50: > 100 µM (inactive)
MDA-N
  GI50: > 100 µM (inactive)
KM12
  GI50: > 100 µM (inactive)
T47D
  GI50: > 100 µM (inactive)
PC-3
  GI50: > 100 µM (inactive)
HCT-15
  GI50: > 100 µM
SK-OV-3
  GI50: > 100 µM (inactive)
OVCAR-3
  GI50: > 100 µM (inactive)
BT-549
  GI50: > 100 µM (inactive)
UO-31
  GI50: > 100 µM (inactive)
NCI/ADR-RES
  GI50: > 100 µM (inactive)
SR
  GI50: > 100 µM (inactive)
SF-539
  GI50: > 100 µM (inactive)
CCRF-CEM
  GI50: > 100 µM (inactive)
SNB-75
  GI50: > 100 µM (inactive)
HL-60
  GI50: > 100 µM (inactive)
NCI-H23
  GI50: > 100 µM (inactive)
HCT-116
  GI50: > 100 µM (inactive)
HT-29
  GI50: > 100 µM (inactive)
MDA-MB-435
  GI50: > 100 µM (inactive)

## COc1ccc(-c2[nH]c3c4c(nc5c(c24)C(=O)CC(C)(C)C5)CC(C)(C)C3)cc1
Malme-3M
  GI50: > 100 µM (inactive)
MDA-N
  GI50: 47.4 µM (inactive)
KM12
  GI50: 40.4 µM (inactive)
T47D
  GI50: 44.5 µM (inactive)
PC-3
  GI50: 24.3 µM (inactive)
HCT-15
  GI50: 54.2 µM
SK-OV-3
  GI50: > 100 µM (inactive)
OVCAR-3
  GI50: 47.3 µM (inactive)
BT-549
  GI50: 43.9 µM (inactive)
UO-31
  GI50: 61.1 µM (inactive)
NCI/ADR-RES
  GI50: 48.8 µM (inactive)
SR
  GI50: 13.2 µM (inactive)
SF-539
  GI50: 67.6 µM (inactive)
CCRF-CEM
  GI50: 11.4 µM (inactive)
SNB-75
  GI50: 34.4 µM (inactive)
HL-60
  GI50: 55.1 µM (inactive)
NCI-H23
  GI50: 76.2 µM (inactive)
HCT-116
  GI50: 70 µM (inactive)
HT-29
  GI50: 43.9 µM (inactive)
MDA-MB-435
  GI50: 50.2 µM (inactive)

## CC(NC(=O)C(N)CC(=O)O)NC(=O)N(C)C(C)(C)C (stereo not given)
Malme-3M
  GI50: > 100 µM (inactive)
MDA-N
  GI50: > 100 µM (inactive)
KM12
  GI50: > 100 µM (inactive)
T47D
  GI50: > 100 µM (inactive)
PC-3
  GI50: > 100 µM (inactive)
HCT-15
  GI50: > 100 µM
SK-OV-3
  GI50: > 100 µM (inactive)
OVCAR-3
  GI50: > 100 µM (inactive)
BT-549
  GI50: > 100 µM (inactive)
UO-31
  GI50: > 100 µM (inactive)
NCI/ADR-RES
  GI50: > 100 µM (inactive)
SR
  GI50: > 100 µM (inactive)
SF-539
  GI50: > 100 µM (inactive)
CCRF-CEM
  GI50: > 100 µM (inactive)
SNB-75
  GI50: > 100 µM (inactive)
HL-60
  GI50: > 100 µM (inactive)
NCI-H23
  GI50: > 100 µM (inactive)
HCT-116
  GI50: > 100 µM (inactive)
HT-29
  GI50: > 100 µM (inactive)
MDA-MB-435
  GI50: > 100 µM (inactive)

## CCCCN1C(=O)C[C@H]2[C@@H]3CCc4cc(OCCN5CCCC5)ccc4[C@H]3CC[C@]2(C)C1=O
Malme-3M
  GI50: 3.89 µM (inactive)
MDA-N
  GI50: 4.38 µM (inactive)
KM12
  GI50: 7.94 µM (inactive)
T47D
  GI50: 12.3 µM (inactive)
PC-3
  GI50: 7.48 µM (inactive)
HCT-15
  GI50: 6 µM
SK-OV-3
  GI50: 13.9 µM (inactive)
OVCAR-3
  GI50: 10.6 µM (inactive)
BT-549
  GI50: 13.7 µM (inactive)
UO-31
  GI50: 4.6 µM (inactive)
NCI/ADR-RES
  GI50: 14.7 µM (inactive)
SR
  GI50: 3.79 µM (inactive)
SF-539
  GI50: 9.71 µM (inactive)
CCRF-CEM
  GI50: 4.06 µM (inactive)
SNB-75
  GI50: 3.4 µM (inactive)
HL-60
  GI50: 7.1 µM (inactive)
NCI-H23
  GI50: 11.4 µM (inactive)
HCT-116
  GI50: 3.64 µM (inactive)
HT-29
  GI50: 0.979 µM (active)
MDA-MB-435
  GI50: 6.31 µM (inactive)

## CCCOc1cc2c(cc1O)CC[C@@H]1[C@@H]2CC[C@]2(C)[C@@H](O)CC[C@@H]12
Malme-3M
  GI50: 6.82 µM (inactive)
MDA-N
  GI50: 0.22 µM (active)
KM12
  GI50: 4.15 µM (inactive)
T47D
  GI50: 3.19 µM (inactive)
PC-3
  GI50: 4.76 µM (inactive)
HCT-15
  GI50: 0.687 µM
SK-OV-3
  GI50: 3.04 µM (inactive)
OVCAR-3
  GI50: 1.55 µM (inactive)
BT-549
  GI50: 0.524 µM (active)
UO-31
  GI50: 4.95 µM (inactive)
NCI/ADR-RES
  GI50: 1.17 µM (inactive)
SR
  GI50: 0.209 µM (active)
SF-539
  GI50: 1.48 µM (inactive)
CCRF-CEM
  GI50: 1.56 µM (inactive)
SNB-75
  GI50: 2.36 µM (inactive)
HL-60
  GI50: 0.637 µM (active)
NCI-H23
  GI50: 3.37 µM (inactive)
HCT-116
  GI50: 1.64 µM (inactive)
HT-29
  GI50: 7.57 µM (inactive)
MDA-MB-435
  GI50: 0.284 µM (active)
